Consider 17 compounds from patent US20250382332A1, “NOVEL ALPHA-FACTOR BASED PEPTIDES WITH ANTIFUNGAL ACTIVITY” (INVAIO SCIENCES, INC., priority 2024, published 2025).

Structures are written as SMILES. Peptide text beside a SMILES is read from it. Some results are limits rather than exact numbers.

The test system of the assay is Botrytis cinerea (B05.10). The assay is described as follows: Resazurin antifungal assay of 180 alpha-factor peptide variants towards Botrytis (Example 2). The assay is classed as cell-based. The note with it: % inhibition of fungal growth, Botrytis conidia, resazurin; for Inhibition at 50 μM: peptide 50 μM; for Inhibition at 100 μM: peptide 100 μM. The gist of the method:
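Resazurin viability read-out (570/620 nm fluorescence) after a 24 h, 20° C incubation of B05.10 conidia, 5000 per well, with peptide at final 10-100 μM. Growth inhibition (%) was derived by subtracting conidia-only fluorescence; four replicates per treatment.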

Take `CSCC[C@H](NC(=O)[C@@H]1CCCN1C(=O)[C@H](CCC(N)=O)NC(=O)CNC(=O)[C@@H]1CCCN1C(=O)[C@H](CCCCN)NC(=O)[C@H](CC(C)C)NC(=O)[C@H](CO)NC(=O)[C@@H](NC(=O)[C@H](Cc1c[nH]c2ccccc12)NC(=O)[C@H](Cc1c[nH]cn1)NC(=O)[C@@H]1CCCN1)C(C)C)C(=O)N[C@@H](Cc1ccc(O)cc1)C(=O)O` [compound 160] (H-PHWVSLKPGQPMY-OH; N-terminus and C-terminus assumed): the “Inhibition at 50 μM” value is <90% and the “Inhibition at 100 μM” value was <90%.
With `CSCC[C@H](NC(=O)[C@@H]1CCCN1C(=O)[C@H](CO)NC(=O)CNC(=O)[C@@H]1CCCN1C(=O)[C@H](CCCCN)NC(=O)[C@H](Cc1ccccc1)NC(=O)[C@H](C)NC(=O)[C@@H](NC(=O)[C@H](Cc1c[nH]c2ccccc12)NC(=O)[C@H](Cc1c[nH]cn1)NC(=O)[C@@H]1CCCN1)C(C)C)C(=O)N[C@@H](Cc1ccc(O)cc1)C(=O)O` [compound 161] (H-PHWVAFKPGSPMY-OH; N-terminus and C-terminus assumed), the “Inhibition at 50 μM” value is <90% and the “Inhibition at 100 μM” value was 90.52%.
As to `CSCC[C@H](NC(=O)[C@@H]1CCCN1C(=O)[C@H](CCC(N)=O)NC(=O)CNC(=O)[C@@H]1CCCN1C(=O)[C@H](CCCCN)NC(=O)[C@H](CC(C)C)NC(=O)[C@H](CCC(=O)O)NC(=O)[C@H](CC(C)C)NC(=O)[C@H](Cc1ccc(O)cc1)NC(=O)[C@H](Cc1c[nH]cn1)NC(=O)[C@@H](N)CCCCN)C(=O)N[C@@H](Cc1ccc(O)cc1)C(=O)O` [compound 162] (H-KHYLELKPGQPMY-OH; N-terminus and C-terminus assumed), the “Inhibition at 50 μM” value is listed as <90% and the “Inhibition at 100 μM” value is given as <90%.
Consider `CSCC[C@H](NC(=O)[C@H](Cc1c[nH]cn1)NC(=O)[C@@H](N)Cc1c[nH]c2ccccc12)C(=O)N[C@H](C(=O)N[C@@H](CCC(N)=O)C(=O)N[C@@H](CC(C)C)C(=O)N[C@@H](CCCCN)C(=O)N1CCC[C@H]1C(=O)NCC(=O)N[C@@H](CCC(=O)O)C(=O)N1CCC[C@H]1C(=O)N[C@@H](CCSC)C(=O)N[C@@H](Cc1ccc(O)cc1)C(=O)O)C(C)C` [compound 163] (H-WHMVQLKPGEPMY-OH; N-terminus and C-terminus assumed), for which the “Inhibition at 50 μM” value is on record as <90% and the “Inhibition at 100 μM” value was <90%.
On to `CSCC[C@H](NC(=O)[C@@H]1CCCN1C(=O)[C@H](CCC(N)=O)NC(=O)CNC(=O)[C@@H]1CCCN1C(=O)[C@H](CCCCN)NC(=O)[C@H](CC(C)C)NC(=O)[C@H](CO)NC(=O)[C@H](CC(C)C)NC(=O)[C@@H](NC(=O)CNC(=O)[C@@H](N)CCCCN)[C@@H](C)O)C(=O)N[C@@H](Cc1ccc(O)cc1)C(=O)O` [compound 164] (H-KGTLSLKPGQPMY-OH; N-terminus and C-terminus assumed), for which the “Inhibition at 50 μM” value is given as <90% and the “Inhibition at 100 μM” value is given as <90%.
For `CSCC[C@H](NC(=O)[C@@H]1CCCN1C(=O)[C@H](CCC(N)=O)NC(=O)CNC(=O)[C@@H]1CCCN1C(=O)[C@H](CCCCN)NC(=O)[C@H](Cc1ccccc1)NC(=O)[C@H](CCC(=O)O)NC(=O)[C@H](CC(C)C)NC(=O)[C@H](CO)NC(=O)[C@H](Cc1c[nH]cn1)NC(=O)[C@@H](N)CCCCN)C(=O)N[C@@H](Cc1ccc(O)cc1)C(=O)O` [compound 165] (H-KHSLEFKPGQPMY-OH; N-terminus and C-terminus assumed), the “Inhibition at 50 μM” value is <90% and the “Inhibition at 100 μM” value was <90%.
`CSCC[C@H](NC(=O)[C@@H]1CCCN1C(=O)[C@H](CCC(N)=O)NC(=O)CNC(=O)[C@H](CCCNC(=N)N)NC(=O)[C@H](CCCCN)NC(=O)[C@H](Cc1ccccc1)NC(=O)[C@H](CCC(N)=O)NC(=O)[C@@H](NC(=O)[C@H](Cc1ccccc1)NC(=O)[C@H](CCC(=O)O)NC(=O)[C@@H](N)Cc1c[nH]c2ccccc12)C(C)C)C(=O)N[C@@H](Cc1ccc(O)cc1)C(=O)O` [compound 166] (H-WEFVQFKRGQPMY-OH; N-terminus and C-terminus assumed): the “Inhibition at 50 μM” value is <90% and the “Inhibition at 100 μM” value is on record as <90%.
Consider `CSCC[C@H](NC(=O)[C@@H]1CCCN1C(=O)[C@H](CCC(N)=O)NC(=O)CNC(=O)[C@H](CCCNC(=N)N)NC(=O)[C@H](CCC(N)=O)NC(=O)[C@H](Cc1ccccc1)NC(=O)[C@H](CCC(=O)O)NC(=O)[C@H](CC(C)C)NC(=O)[C@H](Cc1c[nH]c2ccccc12)NC(=O)[C@H](Cc1c[nH]cn1)NC(=O)[C@@H](N)Cc1c[nH]c2ccccc12)C(=O)N[C@@H](Cc1ccc(O)cc1)C(=O)O` [compound 167] (H-WHWLEFQRGQPMY-OH; N-terminus and C-terminus assumed), for which the “Inhibition at 50 μM” value is listed as <90% and the “Inhibition at 100 μM” value is <90%.
In the case of `CSCC[C@H](NC(=O)[C@@H]1CCCN1C(=O)[C@H](CCC(N)=O)NC(=O)CNC(=O)[C@@H]1CCCN1C(=O)[C@H](Cc1c[nH]cn1)NC(=O)[C@H](CC(C)C)NC(=O)[C@H](CCC(N)=O)NC(=O)[C@@H](NC(=O)[C@H](CC(C)C)NC(=O)[C@H](Cc1c[nH]cn1)NC(=O)[C@@H](N)CCCCN)C(C)C)C(=O)N[C@@H](Cc1ccc(O)cc1)C(=O)O` [compound 168] (H-KHLVQLHPGQPMY-OH; N-terminus and C-terminus assumed), the “Inhibition at 50 μM” value was <90% and the “Inhibition at 100 μM” value is recorded as <90%.
`CC[C@H](C)[C@H](NC(=O)[C@@H](NC(=O)[C@H](Cc1c[nH]cn1)NC(=O)[C@@H]1CCCN1)[C@@H](C)O)C(=O)N[C@@H](CCC(N)=O)C(=O)N[C@@H](CC(C)C)C(=O)N[C@@H](Cc1c[nH]c2ccccc12)C(=O)N[C@@H](CCCCN)C(=O)NCC(=O)N[C@@H](CCC(N)=O)C(=O)N1CCC[C@H]1C(=O)N[C@@H](CCSC)C(=O)N[C@@H](Cc1ccc(O)cc1)C(=O)O` [compound 169] (H-PHTIQLWKGQPMY-OH; N-terminus and C-terminus assumed): the “Inhibition at 50 μM” value was <90% and the “Inhibition at 100 μM” value is recorded as <90%.
Consider `CSCC[C@H](NC(=O)[C@H](Cc1c[nH]cn1)NC(=O)[C@@H](N)Cc1c[nH]c2ccccc12)C(=O)N[C@@H](CC(C)C)C(=O)N[C@H](C(=O)N[C@@H](Cc1ccccc1)C(=O)N[C@@H](CCCCN)C(=O)N1CCC[C@H]1C(=O)NCC(=O)N[C@@H](CCC(N)=O)C(=O)N1CCC[C@H]1C(=O)N[C@@H](CCSC)C(=O)N[C@@H](Cc1ccc(O)cc1)C(=O)O)[C@@H](C)O` [compound 170] (H-WHMLTFKPGQPMY-OH; N-terminus and C-terminus assumed), for which the “Inhibition at 50 μM” value is <90% and the “Inhibition at 100 μM” value is on record as <90%.
Take `CSCC[C@H](NC(=O)[C@@H]1CCCN1C(=O)[C@H](CCC(=O)O)NC(=O)CNC(=O)[C@@H]1CCCN1C(=O)[C@H](CCCCN)NC(=O)[C@H](Cc1ccccc1)NC(=O)[C@H](CCC(N)=O)NC(=O)CNC(=O)[C@H](CC(C)C)NC(=O)[C@H](Cc1c[nH]cn1)NC(=O)[C@@H](N)Cc1c[nH]c2ccccc12)C(=O)N[C@@H](Cc1ccc(O)cc1)C(=O)O` [compound 171] (H-WHLGQFKPGEPMY-OH; N-terminus and C-terminus assumed): the “Inhibition at 50 μM” value is on record as <90% and the “Inhibition at 100 μM” value is recorded as <90%.
On to `CSCC[C@H](NC(=O)[C@@H]1CCCN1C(=O)[C@H](CCSC)NC(=O)CNC(=O)[C@H](CO)NC(=O)[C@H](CCCCN)NC(=O)[C@H](CC(C)C)NC(=O)[C@H](C)NC(=O)CNC(=O)[C@H](Cc1c[nH]c2ccccc12)NC(=O)[C@H](CO)NC(=O)[C@@H](N)Cc1c[nH]c2ccccc12)C(=O)N[C@@H](Cc1ccc(O)cc1)C(=O)O` [compound 172] (H-WSWGALKSGMPMY-OH; N-terminus and C-terminus assumed), for which the “Inhibition at 50 μM” value is recorded as <90% and the “Inhibition at 100 μM” value was <90%.
With `CSCC[C@H](NC(=O)[C@@H]1CCCN1C(=O)[C@H](CCC(N)=O)NC(=O)CNC(=O)[C@H](CC(N)=O)NC(=O)[C@H](CCCCN)NC(=O)[C@H](CC(C)C)NC(=O)[C@H](CCC(N)=O)NC(=O)[C@@H](NC(=O)[C@H](Cc1c[nH]c2ccccc12)NC(=O)[C@H](Cc1c[nH]cn1)NC(=O)[C@@H]1CCCN1)C(C)C)C(=O)N[C@@H](Cc1ccc(O)cc1)C(=O)O` [compound 173] (H-PHWVQLKNGQPMY-OH; N-terminus and C-terminus assumed), the “Inhibition at 50 μM” value was <90% and the “Inhibition at 100 μM” value is listed as <90%.
For `CSCC[C@H](NC(=O)[C@@H]1CCCN1C(=O)[C@H](CCC(N)=O)NC(=O)CNC(=O)[C@@H]1CCCN1C(=O)[C@H](Cc1c[nH]cn1)NC(=O)[C@H](CC(C)C)NC(=O)[C@H](CCC(N)=O)NC(=O)[C@@H](NC(=O)[C@H](CO)NC(=O)[C@H](Cc1c[nH]cn1)NC(=O)[C@@H](N)Cc1c[nH]c2ccccc12)C(C)C)C(=O)N[C@@H](Cc1ccc(O)cc1)C(=O)O` [compound 174] (H-WHSVQLHPGQPMY-OH; N-terminus and C-terminus assumed), the “Inhibition at 50 μM” value is <90% and the “Inhibition at 100 μM” value is recorded as <90%.
Consider `CC[C@H](C)[C@H](NC(=O)[C@H](Cc1c[nH]c2ccccc12)NC(=O)[C@H](CCCCN)NC(=O)[C@@H](N)CCCCN)C(=O)N[C@@H](CCC(N)=O)C(=O)N[C@@H](CC(C)C)C(=O)N[C@@H](CCCCN)C(=O)N1CCC[C@H]1C(=O)NCC(=O)N[C@@H](CCC(=O)O)C(=O)N1CCC[C@H]1C(=O)N[C@@H](CCSC)C(=O)N[C@@H](Cc1ccc(O)cc1)C(=O)O` [compound 175] (H-KKWIQLKPGEPMY-OH; N-terminus and C-terminus assumed), for which the “Inhibition at 50 μM” value is given as <90% and the “Inhibition at 100 μM” value is on record as <90%.
For the compound `CSCC[C@H](NC(=O)[C@@H]1CCCN1C(=O)[C@H](CO)NC(=O)CNC(=O)[C@H](CCCNC(=N)N)NC(=O)[C@H](CCCCN)NC(=O)[C@H](CC(C)C)NC(=O)[C@H](CC(N)=O)NC(=O)[C@@H](NC(=O)[C@H](CC(=O)O)NC(=O)[C@H](Cc1c[nH]cn1)NC(=O)[C@@H](N)Cc1c[nH]c2ccccc12)C(C)C)C(=O)N[C@@H](Cc1ccc(O)cc1)C(=O)O` [compound 176] (H-WHDVNLKRGSPMY-OH; N-terminus and C-terminus assumed), the “Inhibition at 50 μM” value was <90% and the “Inhibition at 100 μM” value is reported as <90%.
